In brackets after ≈: the same amount, converted by molar mass.
Legend:
Enterococcus faecalis = experiment: Antibacterial activity against Enterococcus faecalis MG2 EF1 by micro-broth method; assay type: functional
Escherichia coli = experiment: Inhibition of transcription and translation activity in Escherichia coli by luciferase reporter assay; assay type: functional, organism-based
Staphylococcus aureus = experiment: Antibacterial activity against Staphylococcus aureus UC76 SA1 by micro-broth method; assay type: functional
Moraxella catarrhalis = experiment: Antibacterial activity against Moraxella catarrhalis BC-3531 by micro-broth method; assay type: functional
Streptococcus pneumoniae = experiment: Antibacterial activity against Streptococcus pneumoniae SV1 SP3 by micro-broth method; assay type: functional
Streptococcus pyogenes = experiment: Antibacterial activity against Streptococcus pyogenes C203 SP1-1 by micro-broth method; assay type: functional
Haemophilus influenzae = experiment: Antibacterial activity against Heamophilus influenzae HI3542 by microbroth method; assay type: functional

Structure (SMILES)	MIC (Enterococcus faecalis)	IC50 (Escherichia coli)	MIC (Staphylococcus aureus)	MIC (Moraxella catarrhalis)	MIC (Streptococcus pneumoniae)	MIC (Streptococcus pyogenes)	MIC (Haemophilus influenzae)
CC(=O)NC[C@H]1CN(c2ccc3c(c2)CCCc2c(-c4ccncc4)n[nH]c2-3)C(=O)O1	1 µg/mL (≈ 2.4 µM)	1000 nM	2 µg/mL (≈ 4.79 µM)	2 µg/mL (≈ 4.79 µM)	0.25 µg/mL (≈ 0.599 µM)	0.25 µg/mL (≈ 0.599 µM)	4 µg/mL (≈ 9.58 µM)
CC(C)C(=O)NC[C@H]1CN(c2ccc3c(c2)CCCc2c(C(C)C)n[nH]c2-3)C(=O)O1	8 µg/mL (≈ 19.5 µM)	7900 nM	8 µg/mL (≈ 19.5 µM)	32 µg/mL (≈ 78 µM)	4 µg/mL (≈ 9.74 µM)	4 µg/mL (≈ 9.74 µM)	64 µg/mL (≈ 156 µM)
CC(=O)NC[C@H]1CN(c2cc(F)c3c(c2)CCCc2cn[nH]c2-3)C(=O)O1	2 µg/mL (≈ 5.58 µM)	2100 nM	2 µg/mL (≈ 5.58 µM)	8 µg/mL (≈ 22.3 µM)	1 µg/mL (≈ 2.79 µM)	1 µg/mL (≈ 2.79 µM)	8 µg/mL (≈ 22.3 µM)
CC(=O)NC[C@H]1CN(c2ccc3c(c2)CCCc2c(-c4ccccc4)n[nH]c2-3)C(=O)O1	0.5 µg/mL (≈ 1.2 µM)	2000 nM	0.5 µg/mL (≈ 1.2 µM)	2 µg/mL (≈ 4.8 µM)	0.5 µg/mL (≈ 1.2 µM)	0.5 µg/mL (≈ 1.2 µM)	8 µg/mL (≈ 19.2 µM)
O=C(NC[C@H]1CN(c2ccc3c(c2)CCCc2c(-c4ccno4)n[nH]c2-3)C(=O)O1)c1cccnc1	1 µg/mL (≈ 2.13 µM)	2800 nM	2 µg/mL (≈ 4.25 µM)	32 µg/mL (≈ 68 µM)	1 µg/mL (≈ 2.13 µM)	1 µg/mL (≈ 2.13 µM)	> 64 µg/mL
CC(=O)NC[C@H]1CN(c2ccc3c(c2)CCCc2c(-c4cc(C)n(C)n4)n[nH]c2-3)C(=O)O1	0.5 µg/mL (≈ 1.15 µM)	1300 nM	0.5 µg/mL (≈ 1.15 µM)	4 µg/mL (≈ 9.21 µM)	0.25 µg/mL (≈ 0.575 µM)	0.25 µg/mL (≈ 0.575 µM)	8 µg/mL (≈ 18.4 µM)
CC(=O)NC[C@H]1CN(c2ccc(N3CCOCC3)c(F)c2)C(=O)O1 [LINEZOLID]	–	–	–	–	–	2 µg/mL (≈ 5.93 µM)	–
CC(=O)NC[C@H]1CN(c2cc(F)c3c(c2)CCCc2c(-c4cc(C)n(C)n4)n[nH]c2-3)C(=O)O1	2 µg/mL (≈ 4.42 µM)	4200 nM	4 µg/mL (≈ 8.84 µM)	32 µg/mL (≈ 70.7 µM)	1 µg/mL (≈ 2.21 µM)	1 µg/mL (≈ 2.21 µM)	> 64 µg/mL
CCc1n[nH]c2c1CCCc1cc(N3C[C@H](CNC(C)=O)OC3=O)ccc1-2	0.25 µg/mL (≈ 0.679 µM)	1100 nM	0.5 µg/mL (≈ 1.36 µM)	1 µg/mL (≈ 2.71 µM)	0.125 µg/mL (≈ 0.339 µM)	0.125 µg/mL (≈ 0.339 µM)	4 µg/mL (≈ 10.9 µM)
CC(=O)NC[C@H]1CN(c2ccc3c(c2)CCCc2c(-c4nnc(-c5ccccc5)o4)n[nH]c2-3)C(=O)O1	> 64 µg/mL	–	> 64 µg/mL	> 64 µg/mL	0.25 µg/mL (≈ 0.516 µM)	0.25 µg/mL (≈ 0.516 µM)	16 µg/mL (≈ 33 µM)
Cc1cc(C(=O)NC[C@H]2CN(c3cc(F)c4c(c3)CCCc3c(-c5cc(C)n(C)n5)n[nH]c3-4)C(=O)O2)nn1C	> 64 µg/mL	> 25000 nM	> 64 µg/mL	> 64 µg/mL	> 64 µg/mL	> 64 µg/mL	> 64 µg/mL
CC(=O)NC[C@H]1CN(c2ccc3c(c2)CCCc2c(-c4ccoc4)n[nH]c2-3)C(=O)O1	0.25 µg/mL (≈ 0.615 µM)	700 nM	0.5 µg/mL (≈ 1.23 µM)	1 µg/mL (≈ 2.46 µM)	0.25 µg/mL (≈ 0.615 µM)	0.125 µg/mL (≈ 0.308 µM)	4 µg/mL (≈ 9.84 µM)
CC(=O)NC[C@H]1CN(c2ccc3c(c2)CCCc2c(-c4ccno4)n[nH]c2-3)C(=O)O1	0.125 µg/mL (≈ 0.307 µM)	760 nM	0.25 µg/mL (≈ 0.614 µM)	1 µg/mL (≈ 2.45 µM)	< 0.06 µg/mL	< 0.06 µg/mL	2 µg/mL (≈ 4.91 µM)
CCCC(=O)NC[C@H]1CN(c2ccc3c(c2)CCCc2c(CCC)n[nH]c2-3)C(=O)O1	2 µg/mL (≈ 4.87 µM)	5600 nM	2 µg/mL (≈ 4.87 µM)	8 µg/mL (≈ 19.5 µM)	1 µg/mL (≈ 2.44 µM)	1 µg/mL (≈ 2.44 µM)	> 64 µg/mL
CC(=O)NC[C@H]1CN(c2ccc3c(c2)CCCc2c(-c4cscn4)n[nH]c2-3)C(=O)O1	0.5 µg/mL (≈ 1.18 µM)	1100 nM	1 µg/mL (≈ 2.36 µM)	1 µg/mL (≈ 2.36 µM)	0.125 µg/mL (≈ 0.295 µM)	1 µg/mL (≈ 2.36 µM)	2 µg/mL (≈ 4.72 µM)
O=C(NC[C@H]1CN(c2ccc3c(c2)CCCc2c(-c4ccoc4)n[nH]c2-3)C(=O)O1)c1ccoc1	1 µg/mL (≈ 2.18 µM)	3500 nM	2 µg/mL (≈ 4.36 µM)	4 µg/mL (≈ 8.72 µM)	1 µg/mL (≈ 2.18 µM)	1 µg/mL (≈ 2.18 µM)	8 µg/mL (≈ 17.4 µM)
CC(=O)NC[C@H]1CN(c2ccc3c(c2)CCCc2c(C(C)C)n[nH]c2-3)C(=O)O1	2 µg/mL (≈ 5.23 µM)	4300 nM	2 µg/mL (≈ 5.23 µM)	8 µg/mL (≈ 20.9 µM)	0.5 µg/mL (≈ 1.31 µM)	1 µg/mL (≈ 2.61 µM)	16 µg/mL (≈ 41.8 µM)
Cc1cc(C(=O)NC[C@H]2CN(c3ccc4c(c3)CCCc3c(-c5cc(C)on5)n[nH]c3-4)C(=O)O2)no1	> 64 µg/mL	–	> 64 µg/mL	> 64 µg/mL	1 µg/mL (≈ 2.05 µM)	2 µg/mL (≈ 4.09 µM)	> 64 µg/mL
CC(=O)NC[C@H]1CN(c2ccc3c(c2)CCCc2c(-c4cc(C)on4)n[nH]c2-3)C(=O)O1	0.5 µg/mL (≈ 1.19 µM)	900 nM	0.5 µg/mL (≈ 1.19 µM)	2 µg/mL (≈ 4.75 µM)	0.25 µg/mL (≈ 0.593 µM)	0.25 µg/mL (≈ 0.593 µM)	4 µg/mL (≈ 9.49 µM)
O=C(NC[C@H]1CN(c2ccc3c(c2)CCCc2c(-c4ccno4)n[nH]c2-3)C(=O)O1)c1ccno1	1 µg/mL (≈ 2.17 µM)	16800 nM	1 µg/mL (≈ 2.17 µM)	4 µg/mL (≈ 8.69 µM)	0.5 µg/mL (≈ 1.09 µM)	0.5 µg/mL (≈ 1.09 µM)	32 µg/mL (≈ 69.5 µM)
CC(=O)NC[C@H]1CN(c2ccc3c(c2)CCCCC3=O)C(=O)O1	2 µg/mL (≈ 6.32 µM)	–	1 µg/mL (≈ 3.16 µM)	–	0.5 µg/mL (≈ 1.58 µM)	0.5 µg/mL (≈ 1.58 µM)	–
CC(=O)NC[C@H]1CN(c2ccc3c(c2)CCCc2c(-c4ccc(O)cc4)n[nH]c2-3)C(=O)O1	0.5 µg/mL (≈ 1.16 µM)	1700 nM	1 µg/mL (≈ 2.31 µM)	2 µg/mL (≈ 4.62 µM)	0.25 µg/mL (≈ 0.578 µM)	2 µg/mL (≈ 4.62 µM)	4 µg/mL (≈ 9.25 µM)
CCCc1n[nH]c2c1CCCc1cc(N3C[C@H](CNC(C)=O)OC3=O)ccc1-2	1 µg/mL (≈ 2.61 µM)	3100 nM	2 µg/mL (≈ 5.23 µM)	4 µg/mL (≈ 10.5 µM)	0.5 µg/mL (≈ 1.31 µM)	0.5 µg/mL (≈ 1.31 µM)	16 µg/mL (≈ 41.8 µM)
CC(=O)NC[C@H]1CN(c2ccc3c(c2)CCCc2c(C)n[nH]c2-3)C(=O)O1	1 µg/mL (≈ 2.82 µM)	1200 nM	1 µg/mL (≈ 2.82 µM)	4 µg/mL (≈ 11.3 µM)	0.5 µg/mL (≈ 1.41 µM)	0.5 µg/mL (≈ 1.41 µM)	4 µg/mL (≈ 11.3 µM)
CC(=O)NC[C@H]1CN(c2ccc3c(c2)CCCc2c(-c4cccnc4)n[nH]c2-3)C(=O)O1	0.5 µg/mL (≈ 1.2 µM)	1000 nM	1 µg/mL (≈ 2.4 µM)	2 µg/mL (≈ 4.79 µM)	0.125 µg/mL (≈ 0.299 µM)	0.25 µg/mL (≈ 0.599 µM)	4 µg/mL (≈ 9.58 µM)
CC(=O)NC[C@H]1CN(c2ccc3c(c2)CCCc2c(-c4csc(-c5ccccc5)n4)n[nH]c2-3)C(=O)O1	8 µg/mL (≈ 16 µM)	> 11400 nM	8 µg/mL (≈ 16 µM)	> 64 µg/mL	0.5 µg/mL (≈ 1 µM)	1 µg/mL (≈ 2 µM)	> 64 µg/mL
Cc1cc(C(=O)NC[C@H]2CN(c3cc(F)c4c(c3)CCCc3c(-c5cc(C)on5)n[nH]c3-4)C(=O)O2)no1	> 64 µg/mL	11500 nM	> 64 µg/mL	> 64 µg/mL	> 64 µg/mL	> 64 µg/mL	> 64 µg/mL
CC(=O)NC[C@H]1CN(c2ccc3c(c2)CCCc2cn[nH]c2-3)C(=O)O1	0.25 µg/mL (≈ 0.734 µM)	–	0.5 µg/mL (≈ 1.47 µM)	2 µg/mL (≈ 5.88 µM)	0.25 µg/mL (≈ 0.734 µM)	0.125 µg/mL (≈ 0.367 µM)	2 µg/mL (≈ 5.88 µM)
CC(=O)NC[C@H]1CN(c2ccc3c(c2)CCCc2c(-c4nc5ccccc5s4)n[nH]c2-3)C(=O)O1	> 64 µg/mL	–	> 64 µg/mL	> 64 µg/mL	> 64 µg/mL	> 64 µg/mL	> 64 µg/mL

From ChEMBL document CHEMBL1140680 (Bioorg Med Chem Lett, 2007)
